Biological target: T1, Dimer of Gag-Pol polyprotein [489-587] (Human immunodeficiency virus 1, UniProt P12497)
T1 construct: 489-587
Test: Protease Inhibition Assay
Conditions: not given
Source text: HIV-1 protease was purified and refolded from E. coli inclusion bodies. […] In the presence of HIV-l protease, the substrate is rapidly cleaved into two parts. The biotinylated amino terminal fragment binds to the avidin beads while the FITC-containing carboxy1 terminal fragment is removed through the membrane. […] The bound fluorescence is obtained by processing on an IDEXX Screen Machine. Determination of Ki values with this assay requires analysis under conditions in which substrate concentration resides substantially below Km and the inhibitor concentrations greatly exceeds the Ki value and the enzyme concentration.

Which Ki does the source give for O=c1oc2c(c(O)c1C(c1cccc(NS(=O)(=O)c3ccc(F)cc3)c1)C1CC1)CCCCCC2 (stereo unspecified) here?
Its Ki is 3.1 nM.

Which Ki does the source give for O=c1oc2c(c(O)c1C(c1cccc(NS(=O)(=O)c3ccc(Cl)c(Cl)c3Cl)c1)C1CC1)CCCCCC2 (stereo unspecified) [2,3,4-trichloro-N-{3-[cyclopropyl({4-hydroxy-2-oxo-2H,5H,6H,7H,8H,9H,10H-cycloocta[b]pyran-3-yl})methyl]phenyl}benzene-1-sulfonamide] here?
Its Ki is 8.8 nM.

Which Ki does the source give for O=c1oc2c(c(O)c1C(c1cccc(NS(=O)(=O)c3cccc(Cl)c3Cl)c1)C1CC1)CCCCCC2 (stereo unspecified) [2,3-dichloro-N-{3-[cyclopropyl({4-hydroxy-2-oxo-2H,5H,6H,7H,8H,9H,10H-cycloocta[b]pyran-3-yl})methyl]phenyl}benzene-1-sulfonamide] here?
Its Ki is 7.6 nM.

O=c1oc2c(c(O)c1C(c1cccc(NS(=O)(=O)c3ccc(Cl)cc3Cl)c1)C1CC1)CCCCCC2 (stereo unspecified) [2,4-dichloro-N-{3-[cyclopropyl({4-hydroxy-2-oxo-2H,5H,6H,7H,8H,9H,10H-cycloocta[b]pyran-3-yl})methyl]phenyl}benzene-1-sulfonamide] was tested. Which Ki did it give?
The Ki was 6.2 nM.

For O=c1oc2c(c(O)c1C(c1cccc(NS(=O)(=O)c3cc(Cl)ccc3Cl)c1)C1CC1)CCCCCC2 (stereo unspecified) [2,5-dichloro-N-{3-[cyclopropyl({4-hydroxy-2-oxo-2H,5H,6H,7H,8H,9H,10H-cycloocta[b]pyran-3-yl})methyl]phenyl}benzene-1-sulfonamide], which Ki is on record?
The Ki was 74 nM.

Which Ki does the source give for O=c1oc2c(c(O)c1C(c1cccc(NS(=O)(=O)c3c(Cl)cccc3Cl)c1)C1CC1)CCCCCC2 (stereo unspecified) [2,6-dichloro-N-{3-[cyclopropyl({4-hydroxy-2-oxo-2H,5H,6H,7H,8H,9H,10H-cycloocta[b]pyran-3-yl})methyl]phenyl}benzene-1-sulfonamide] here?
The Ki was greater than 200 nM.

How did the Ki turn out when O=c1oc2c(c(O)c1C(c1cccc(NS(=O)(=O)c3ccc(Cl)c(Cl)c3)c1)C1CC1)CCCCCC2 (stereo unspecified) [3,4-dichloro-N-{3-[cyclopropyl({4-hydroxy-2-oxo-2H,5H,6H,7H,8H,9H,10H-cycloocta[b]pyran-3-yl})methyl]phenyl}benzene-1-sulfonamide] was run?
The Ki was 4.1 nM.

With O=c1oc2c(c(O)c1C(c1cccc(NS(=O)(=O)c3cc(Cl)cc(Cl)c3)c1)C1CC1)CCCCCC2 (stereo unspecified) [3,5-dichloro-N-{3-[cyclopropyl({4-hydroxy-2-oxo-2H,5H,6H,7H,8H,9H,10H-cycloocta[b]pyran-3-yl})methyl]phenyl}benzene-1-sulfonamide] as the molecule, how does the Ki read?
The Ki was 6.9 nM.

How did the Ki turn out when [N-]=[N+]=Nc1ccc(S(=O)(=O)Nc2cccc(C(c3c(O)c4c(oc3=O)CCCCCC4)C3CC3)c2)cc1 (stereo unspecified) [4-azido-N-{3-[cyclopropyl({4-hydroxy-2-oxo-2H,5H,6H,7H,8H,9H,10H-cycloocta[b]pyran-3-yl})methyl]phenyl}benzene-1-sulfonamide] was run?
The Ki was 2.6 nM.

How did the Ki turn out when O=c1oc2c(c(O)c1C(c1cccc(NS(=O)(=O)c3ccc(Br)cc3)c1)C1CC1)CCCCCC2 (stereo unspecified) [4-bromo-N-{3-[cyclopropyl({4-hydroxy-2-oxo-2H,5H,6H,7H,8H,9H,10H-cycloocta[b]pyran-3-yl})methyl]phenyl}benzene-1-sulfonamide] was run?
Its Ki is 2.1 nM.

For O=c1oc2c(c(O)c1C(c1cccc(NS(=O)(=O)c3ccc(Cl)cc3)c1)C1CC1)CCCCCC2 (stereo unspecified) [4-chloro-N-{3-[cyclopropyl({4-hydroxy-2-oxo-2H,5H,6H,7H,8H,9H,10H-cycloocta[b]pyran-3-yl})methyl]phenyl}benzene-1-sulfonamide], which Ki is on record?
Its Ki is 2.5 nM.

Which Ki does the source give for N#Cc1ccc(S(=O)(=O)Nc2cccc(C(c3c(O)c4c(oc3=O)CCCCCC4)C3CC3)c2)nc1 (stereo unspecified) [5-cyano-N-{3-[cyclopropyl({4-hydroxy-2-oxo-2H,5H,6H,7H,8H,9H,10H-cycloocta[b]pyran-3-yl})methyl]phenyl}pyridine-2-sulfonamide] here?
Its Ki is 1 nM.

O=c1oc2c(c(O)c1C(c1cccc(NS(=O)(=O)c3cccc4cccnc34)c1)C1CC1)CCCCCC2 (stereo unspecified) [N-[3-[Cyclopropyl(5,6,7,8,9,10-hexahydro-4-hydroxy-2-oxo-2H-cycloocta[b]pyran-3-yl)methyl]phenyl]-8-quinolinesulfonamide] was tested. Which Ki did it give?
Its Ki is 1.9 nM.

O=c1oc2c(c(O)c1C(c1cccc(NS(=O)(=O)c3cscn3)c1)C1CC1)CCCCCC2 (stereo unspecified) [N-{3-[cyclopropyl({4-hydroxy-2-oxo-2H,5H,6H,7H,8H,9H,10H-cycloocta[b]pyran-3-yl})methyl]phenyl}-1,3-thiazole-4-sulfonamide] was tested. Which Ki did it give?
Its Ki is 1.6 nM.

How did the Ki turn out when O=c1oc2c(c(O)c1C(c1cccc(NS(=O)(=O)c3ccc(F)cc3F)c1)C1CC1)CCCCCC2 (stereo unspecified) [N-{3-[cyclopropyl({4-hydroxy-2-oxo-2H,5H,6H,7H,8H,9H,10H-cycloocta[b]pyran-3-yl})methyl]phenyl}-2,4-difluorobenzene-1-sulfonamide] was run?
The Ki was 4.1 nM.

Cc1cccc(C)c1S(=O)(=O)Nc1cccc(C(c2c(O)c3c(oc2=O)CCCCCC3)C2CC2)c1 (stereo unspecified) [N-{3-[cyclopropyl({4-hydroxy-2-oxo-2H,5H,6H,7H,8H,9H,10H-cycloocta[b]pyran-3-yl})methyl]phenyl}-2,6-dimethylbenzene-1-sulfonamide] was tested. Which Ki did it give?
Its Ki is greater than 200 nM.

How did the Ki turn out when O=c1oc2c(c(O)c1C(c1cccc(NS(=O)(=O)c3ccc(C(F)(F)F)c(C(F)(F)F)c3)c1)C1CC1)CCCCCC2 (stereo unspecified) [N-{3-[cyclopropyl({4-hydroxy-2-oxo-2H,5H,6H,7H,8H,9H,10H-cycloocta[b]pyran-3-yl})methyl]phenyl}-3,4-bis(trifluoromethyl)benzene-1-sulfonamide] was run?
The Ki was 47 nM.

O=c1oc2c(c(O)c1C(c1cccc(NS(=O)(=O)c3ccc(OC(F)(F)F)cc3)c1)C1CC1)CCCCCC2 (stereo unspecified) [N-{3-[cyclopropyl({4-hydroxy-2-oxo-2H,5H,6H,7H,8H,9H,10H-cycloocta[b]pyran-3-yl})methyl]phenyl}-4-(trifluoromethoxy)benzene-1-sulfonamide] was tested. Which Ki did it give?
The Ki was 4 nM.

O=c1oc2c(c(O)c1C(c1cccc(NS(=O)(=O)c3ccc(C(F)(F)F)cc3)c1)C1CC1)CCCCCC2 (stereo unspecified) [N-{3-[cyclopropyl({4-hydroxy-2-oxo-2H,5H,6H,7H,8H,9H,10H-cycloocta[b]pyran-3-yl})methyl]phenyl}-4-(trifluoromethyl)benzene-1-sulfonamide] was tested. Which Ki did it give?
Its Ki is 6.2 nM.

Which Ki does the source give for O=c1oc2c(c(O)c1C(c1cccc(NS(=O)(=O)c3ccc(I)cc3)c1)C1CC1)CCCCCC2 (stereo unspecified) [N-{3-[cyclopropyl({4-hydroxy-2-oxo-2H,5H,6H,7H,8H,9H,10H-cycloocta[b]pyran-3-yl})methyl]phenyl}-4-iodobenzene-1-sulfonamide] here?
The Ki was 3.1 nM.

Same assay, conditions: pH 5; 22 °C

How did the Ki turn out when O=c1oc2c(c(O)c1C(c1cccc(NS(=O)(=O)c3ccccc3Cl)c1)C1CC1)CCCCCC2 (stereo unspecified) [2-chloro-N-{3-[cyclopropyl({4-hydroxy-2-oxo-2H,5H,6H,7H,8H,9H,10H-cycloocta[b]pyran-3-yl})methyl]phenyl}benzene-1-sulfonamide] was run?
The Ki was 9.3 nM.

N#Cc1ccccc1S(=O)(=O)Nc1cccc(C(c2c(O)c3c(oc2=O)CCCCCC3)C2CC2)c1 (stereo unspecified) [2-cyano-N-{3-[cyclopropyl({4-hydroxy-2-oxo-2H,5H,6H,7H,8H,9H,10H-cycloocta[b]pyran-3-yl})methyl]phenyl}benzene-1-sulfonamide] was tested. Which Ki did it give?
The Ki was 7.4 nM.

For O=c1oc2c(c(O)c1C(c1cccc(NS(=O)(=O)c3cccc(Br)c3)c1)C1CC1)CCCCCC2 (stereo unspecified) [3-bromo-N-{3-[cyclopropyl({4-hydroxy-2-oxo-2H,5H,6H,7H,8H,9H,10H-cycloocta[b]pyran-3-yl})methyl]phenyl}benzene-1-sulfonamide], which Ki is on record?
The Ki was 2.6 nM.

Which Ki does the source give for O=c1oc2c(c(O)c1C(c1cccc(NS(=O)(=O)c3cccc(Cl)c3)c1)C1CC1)CCCCCC2 (stereo unspecified) [3-chloro-N-{3-[cyclopropyl({4-hydroxy-2-oxo-2H,5H,6H,7H,8H,9H,10H-cycloocta[b]pyran-3-yl})methyl]phenyl}benzene-1-sulfonamide] here?
The Ki was 2.7 nM.

Which Ki does the source give for O=c1oc2c(c(O)c1C(c1cccc(NS(=O)(=O)/C=C/c3ccccc3)c1)C1CC1)CCCCCC2 (stereo unspecified) [(E)-N-{3-[cyclopropyl({4-hydroxy-2-oxo-2H,5H,6H,7H,8H,9H,10H-cycloocta[b]pyran-3-yl})methyl]phenyl}-2-phenylethene-1-sulfonamide] here?
Its Ki is 3 nM.

How did the Ki turn out when O=c1oc2c(c(O)c1C(c1cccc(NS(=O)(=O)Cc3ccccc3)c1)C1CC1)CCCCCC2 (stereo unspecified) [N-[3-[Cyclopropyl(5,6,7,8,9,10-hexahydro-4-hydroxy-2-oxo-2H-cycloocta[b]pyran-3-yl)methyl]phenyl]benzenemethanesulfonamide] was run?
Its Ki is 13 nM.

How did the Ki turn out when O=c1oc2c(c(O)c1C(c1cccc(NS(=O)(=O)c3ccccc3C(F)(F)F)c1)C1CC1)CCCCCC2 (stereo unspecified) [N-{3-[cyclopropyl({4-hydroxy-2-oxo-2H,5H,6H,7H,8H,9H,10H-cycloocta[b]pyran-3-yl})methyl]phenyl}-2-(trifluoromethyl)benzene-1-sulfonamide] was run?
The Ki was 21 nM.

With O=c1oc2c(c(O)c1C(c1cccc(NS(=O)(=O)c3ccccc3F)c1)C1CC1)CCCCCC2 (stereo unspecified) [N-{3-[cyclopropyl({4-hydroxy-2-oxo-2H,5H,6H,7H,8H,9H,10H-cycloocta[b]pyran-3-yl})methyl]phenyl}-2-fluorobenzene-1-sulfonamide] as the molecule, how does the Ki read?
Its Ki is 11 nM.

With O=c1oc2c(c(O)c1C(c1cccc(NS(=O)(=O)CCc3ccccc3)c1)C1CC1)CCCCCC2 (stereo unspecified) [N-{3-[cyclopropyl({4-hydroxy-2-oxo-2H,5H,6H,7H,8H,9H,10H-cycloocta[b]pyran-3-yl})methyl]phenyl}-2-phenylethane-1-sulfonamide] as the molecule, how does the Ki read?
The Ki was 3.9 nM.

Which Ki does the source give for O=c1oc2c(c(O)c1C(c1cccc(NS(=O)(=O)c3cccc(C(F)(F)F)c3)c1)C1CC1)CCCCCC2 (stereo unspecified) [N-{3-[cyclopropyl({4-hydroxy-2-oxo-2H,5H,6H,7H,8H,9H,10H-cycloocta[b]pyran-3-yl})methyl]phenyl}-3-(trifluoromethyl)benzene-1-sulfonamide] here?
Its Ki is 3 nM.

With O=c1oc2c(c(O)c1C(c1cccc(NS(=O)(=O)c3cccc([N+](=O)[O-])c3)c1)C1CC1)CCCCCC2 (stereo unspecified) [N-{3-[cyclopropyl({4-hydroxy-2-oxo-2H,5H,6H,7H,8H,9H,10H-cycloocta[b]pyran-3-yl})methyl]phenyl}-3-nitrobenzene-1-sulfonamide] as the molecule, how does the Ki read?
Its Ki is 4.7 nM.

Reference: BindingDB's records for doi:10.1021/jm960441m (Upjohn, 1997)
